Test results from ChEMBL document CHEMBL6134789, “Asymmetric imidazole-4,5-dicarboxamide derivatives as SARS-CoV-2 main protease inhibitors: design, synthesis and biological evaluation” (RSC Med Chem, 2024).

Legend:
[1] = target: Replicase polyprotein 1ab (Severe acute respiratory syndrome coronavirus 2) (UniProt P0DTD1); assay: Inhibition of recombinant SARS-CoV-2 main protease at 1 uM using Dabcyl-KTSAVLQSGFRKM{Glu(Edans)} as substrate preincubated for 10 mins followed by substrate addition and measured at 60 secs interval for 30 mins by fluorogenic assay relative to control; settings: time 40.0 min
[2] = target: T1, Replicase polyprotein 1ab (Severe acute respiratory syndrome coronavirus 2, UniProt P0DTD1); assay: Inhibition of recombinant SARS-CoV-2 main protease using Dabcyl-KTSAVLQSGFRKM{Glu(Edans)} as substrate preincubated for 10 mins followed by substrate addition and measured at 60 secs interval for 30 mins by fluorogenic assay
16HBE14o- = assay: Cytotoxicity against human 16HBE14o- cells assessed as reduction in cell viability at 100 uM measured after 24 hrs by MTT assay; type: toxicity, cell-based
[3] = target: T1, Replicase polyprotein 1ab; assay: Competitive inhibition of recombinant SARS-CoV-2 main protease using varying levels of Dabcyl-KTSAVLQSGFRKM{Glu(Edans)} as substrate by Lineweaver-Burk plot analysis

With `O=C(Nc1ccc(Cl)c(Cl)c1)c1[nH]cnc1C(=O)N1CCOCC1` the inhibition [1] was 33%, the IC50 [2] was 44.6 µM and the Activity (16HBE14o-) was “Non-toxic”.
In the case of `Cc1nc(C(=O)N2CCOCC2)c(C(=O)Nc2cc(Cl)c(Cl)cc2Cl)[nH]1`, the inhibition [1] is reported as 39%, the IC50 [2] is reported as 13.3 µM and the Activity (16HBE14o-) is reported as “Non-toxic”.
Compound `Cc1nc(C(=O)N2CCOCC2)c(C(=O)Nc2ccc(Cl)c(Cl)c2)[nH]1` has an inhibition [1] of 33% and an IC50 [2] of 22.9 µM.
`O=C(Nc1cc(Cl)ccc1Cl)c1[nH]cnc1C(=O)N1CCOCC1` was tested, and the inhibition [1] was 18%.
`O=c1c2ccccc2[se]n1-c1ccccc1` was tested, and the inhibition [1] was 100%.
In the case of `Cc1nc(C(=O)N2CCOCC2)c(C(=O)Nc2cc(Cl)ccc2Cl)[nH]1`, the inhibition [1] is reported as 38%, the IC50 [2] is reported as 8.43 µM and the Activity (16HBE14o-) is reported as “Non-toxic”.
Work on `O=C(Nc1ccc(Cl)cc1)c1[nH]cnc1C(=O)N1CCOCC1` yielded an inhibition [1] of 3%.
With `O=C(Nc1ccccc1)c1[nH]cnc1C(=O)N1CCOCC1` the inhibition [1] was 15%.
For `Cc1cccc(C)c1OCC(=O)N[C@@H](Cc1ccccc1)[C@@H](O)C[C@H](Cc1ccccc1)NC(=O)[C@H](C(C)C)N1CCCNC1=O`, the inhibition [1] was 33%.
Compound `Cc1nc(C(=O)N2CCOCC2)c(C(=O)Nc2ccc(Cl)cc2)[nH]1` has an inhibition [1] of 38%, an IC50 [2] of 4.79 µM and a Ki [3] of 15 µM. For the same compound, the Activity (16HBE14o-) was “Non-toxic”.
In the case of `Cc1nc(C(=O)N2CCOCC2)c(C(=O)Nc2ccccc2)[nH]1`, the inhibition [1] is reported as 24% and the Activity (16HBE14o-) is reported as “Non-toxic”.
`O=C(Nc1cc(Cl)c(Cl)cc1Cl)c1[nH]cnc1C(=O)N1CCOCC1` showed an inhibition [1] of 16%.
In the case of `CC(C)c1nc(CN(C)C(=O)N[C@H](C(=O)N[C@@H](Cc2ccccc2)C[C@H](O)[C@H](Cc2ccccc2)NC(=O)OCc2cncs2)C(C)C)cs1`, the inhibition [1] is reported as 24%.
